Experimental data: patent US12162850B2, “Formulations” (Betagenon AB, priority 2019, dated 2024)

Test: Single dose oral pharmacokinetic studies in rabbits
Type: in vivo
Conditions: male, New Zealand White, rabbit, plasma; for AUC(0-t): 25 mg/kg, 25 mg/kg b.w. oral single dose

AUC(0-t) (enteric coated capsule with MgO, rabbit plasma (Example 9)): 1700 ± 248 µg·h/mL
AUC(0-t) (enteric coated capsule with mannitol, rabbit plasma (Example 10)): 1470 ± 78.7 µg·h/mL
Tmax (53 mg/kg, enteric coated capsule with MgO, 53 mg/kg b.w. (equivalent to 50 mg/kg Compound 1) oral single dose, rabbit plasma (Example 11)): 48 ± 24 h
Compound: O=C(Nc1nc(=O)n(Cc2ccc(Cl)cc2)s1)c1ccc(Cl)cc1.[Na] [Compound 2, 4-chloro-N-[2-[(4-chlorophenyl)methyl]-3-oxo-1,2,4-thiadiazol-5-yl]benzamide sodium salt]
